The results in this text go back to PubChem BioAssay (NCI).

The structures appear in SMILES notation.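 How tested: cells in 96-well plates exposed to compound for 48 hours at five concentrations. TGI: concentration producing complete growth inhibition.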

Among the test systems are HCT-116 colon; HOP-92 NSCLC; ACHN renal; HCT-15 colon; HL-60(TB) leukemia; MDA-MB-231 breast; DU-145 prostate; TK-10 renal; SK-OV-3 ovarian; RXF 393 renal; MDA-MB-435; NCI-H23 lung; EKVX NSCLC; HCC-2998 colon; OVCAR-3 ovarian; LOX IMVI melanoma; SK-MEL-5 melanoma; M14 melanoma.
Holding throughout (assay): NCI anticancer screen, dose series, 48 h

Take `Cc1cccc2c(N)c3cccc(C(=O)NCCCNCCN)c3nc12`: the TGI in the experiment with HCT-116 colon is 25.9 µM; with HOP-92 NSCLC, 42.7 µM; in the experiment on ACHN renal, 32.8 µM; in the experiment with HCT-15 colon, greater than 100 µM; in the experiment with HL-60(TB) leukemia it was greater than 64.3 µM; in the experiment with MDA-MB-231 breast, 12.9 µM. Moreover, the TGI with DU-145 prostate was 17.2 µM; in the experiment on TK-10 renal, 51.7 µM; with SK-OV-3 ovarian it was greater than 62.8 µM; in the experiment on RXF 393 renal it was 18.6 µM; in the experiment with MDA-MB-435, 29.1 µM; with NCI-H23 lung it was 10.9 µM. Besides, the TGI amounted to 33.2 µM in the experiment on EKVX NSCLC; 19.6 µM with HCC-2998 colon; 63.2 µM in the experiment with OVCAR-3 ovarian; 25.2 µM with LOX IMVI melanoma; 22.8 µM in the experiment with SK-MEL-5 melanoma; 28.4 µM in the experiment with M14 melanoma.
For `C=CCN1C(=O)/C(=C/c2ccccc2)NC1=S`, the TGI in the experiment on HCT-116 colon, with HOP-92 NSCLC, in the experiment with ACHN renal, with HCT-15 colon, in the experiment with HL-60(TB) leukemia and in the experiment on MDA-MB-231 breast was greater than 100 µM each time. The TGI with DU-145 prostate, with TK-10 renal, with SK-OV-3 ovarian, with RXF 393 renal, with MDA-MB-435 and with NCI-H23 lung was greater than 100 µM throughout. In addition, the TGI in the experiment with EKVX NSCLC, in the experiment with HCC-2998 colon, in the experiment with OVCAR-3 ovarian, in the experiment on LOX IMVI melanoma, in the experiment on SK-MEL-5 melanoma and with M14 melanoma was greater than 100 µM throughout.
For `O=C1SCC(O)=C1/C=N/Nc1nc2ccccc2o1`, the TGI in the experiment on HCT-116 colon is 50 µM; in the experiment on HOP-92 NSCLC, 81.7 µM; in the experiment with ACHN renal, greater than 100 µM; in the experiment on HCT-15 colon it was greater than 100 µM; in the experiment with HL-60(TB) leukemia, 24.7 µM; in the experiment with MDA-MB-231 breast it was greater than 100 µM. Moreover, the TGI was greater than 100 µM in the experiment with DU-145 prostate; 92.8 µM in the experiment on TK-10 renal; 82.8 µM in the experiment on SK-OV-3 ovarian; 70.7 µM with RXF 393 renal; greater than 100 µM with MDA-MB-435; 86.3 µM in the experiment on NCI-H23 lung. Also, the TGI is 96.1 µM with EKVX NSCLC; greater than 100 µM with HCC-2998 colon; 65.5 µM in the experiment with OVCAR-3 ovarian; greater than 100 µM in the experiment on LOX IMVI melanoma; 63.9 µM in the experiment with SK-MEL-5 melanoma; 57.5 µM with M14 melanoma.
Regarding `COc1ccccc1N1C(=O)/C(=C\c2cccc(Oc3ccccc3)c2)SC1c1ccccc1` (centres undefined), the TGI in the experiment with HCT-116 colon was greater than 100 µM; with HOP-92 NSCLC it was greater than 100 µM; in the experiment on ACHN renal, greater than 100 µM; in the experiment with HCT-15 colon, greater than 100 µM; in the experiment with HL-60(TB) leukemia it was 39.4 µM; in the experiment with MDA-MB-231 breast it was greater than 100 µM. Besides, the TGI in the experiment on DU-145 prostate was greater than 100 µM; in the experiment with TK-10 renal, greater than 100 µM; with SK-OV-3 ovarian, greater than 100 µM; in the experiment with RXF 393 renal, greater than 100 µM; in the experiment with MDA-MB-435, greater than 100 µM; in the experiment with NCI-H23 lung, 98.1 µM. For the same molecule, the TGI is greater than 100 µM in the experiment with EKVX NSCLC; greater than 100 µM with HCC-2998 colon; greater than 100 µM in the experiment with OVCAR-3 ovarian; greater than 100 µM with LOX IMVI melanoma; 32.8 µM with SK-MEL-5 melanoma; greater than 100 µM in the experiment on M14 melanoma.
Take `Cc1[nH]c(=O)[nH]c(=S)c1C(=O)NC(C)(CO)CO`: the TGI in the experiment on HCT-116 colon, in the experiment with HOP-92 NSCLC, in the experiment with ACHN renal, with HCT-15 colon, in the experiment with HL-60(TB) leukemia and in the experiment on MDA-MB-231 breast was greater than 100 µM each time. Besides, the TGI in the experiment on DU-145 prostate, with TK-10 renal, with SK-OV-3 ovarian, in the experiment with RXF 393 renal, with MDA-MB-435 and in the experiment with NCI-H23 lung was greater than 100 µM in each case. The TGI in the experiment with EKVX NSCLC, in the experiment with HCC-2998 colon, in the experiment on OVCAR-3 ovarian, with LOX IMVI melanoma, with SK-MEL-5 melanoma and with M14 melanoma was greater than 100 µM throughout.
As for `C=C1CC[C@@]2(OC1)OC1C[C@H]3[C@@H]4CC=C5C[C@@H](O)CC(OC6OCC(OC(=O)[C@@H](O)[C@@H](C)CC)C(OC(C)=O)C6OC6OC(C)C(O)C(O)C6O)[C@]5(C)[C@H]4CC[C@]3(C)C1[C@@H]2C` (some centres undefined), the TGI in the experiment on HCT-116 colon is 3.06 µM; with HOP-92 NSCLC it was greater than 10 µM; in the experiment on ACHN renal, 5.93 µM; in the experiment with HCT-15 colon it was 3.67 µM; in the experiment on HL-60(TB) leukemia it was 4.87 µM; in the experiment on MDA-MB-231 breast, 3.23 µM. The TGI was 4.35 µM in the experiment on DU-145 prostate; 3.87 µM with TK-10 renal; 3.57 µM in the experiment on SK-OV-3 ovarian; 4.48 µM in the experiment on RXF 393 renal; 3.38 µM in the experiment with MDA-MB-435; 6.57 µM with NCI-H23 lung. The TGI was found to be 6.51 µM with EKVX NSCLC; 2.96 µM in the experiment with HCC-2998 colon; 3.77 µM in the experiment on OVCAR-3 ovarian; 3.67 µM in the experiment on LOX IMVI melanoma; 3.59 µM in the experiment with SK-MEL-5 melanoma; 4.45 µM in the experiment on M14 melanoma.
Turning to `COC(=O)c1ccc2c(c1)CC1(C2)Cc2cc3c(cc2C1=O)CCC3` (centres undefined), the TGI with HCT-116 colon is greater than 100 µM; in the experiment with HOP-92 NSCLC it was greater than 100 µM; in the experiment with ACHN renal it was greater than 100 µM; in the experiment with HCT-15 colon, greater than 100 µM; in the experiment on HL-60(TB) leukemia it was 39.8 µM; in the experiment with MDA-MB-231 breast, greater than 100 µM. Besides, the TGI with DU-145 prostate was greater than 100 µM; in the experiment with TK-10 renal, greater than 100 µM; with SK-OV-3 ovarian, greater than 100 µM; in the experiment with RXF 393 renal, greater than 100 µM; with MDA-MB-435, 57.4 µM; in the experiment on NCI-H23 lung it was greater than 100 µM. Further, the TGI in the experiment on EKVX NSCLC is greater than 100 µM; in the experiment with HCC-2998 colon, greater than 100 µM; with OVCAR-3 ovarian it was 87.8 µM; with LOX IMVI melanoma, 94.2 µM; in the experiment with SK-MEL-5 melanoma, 21.2 µM; in the experiment with M14 melanoma it was 42.2 µM.
In the case of `O=C(CCc1ccc(O)cc1)NCCc1ccc(O)cc1`, the TGI with HCT-116 colon, in the experiment with HOP-92 NSCLC, in the experiment on ACHN renal, in the experiment with HCT-15 colon, in the experiment with HL-60(TB) leukemia and with MDA-MB-231 breast was greater than 100 µM each time. Moreover, the TGI in the experiment on DU-145 prostate, with TK-10 renal, in the experiment on SK-OV-3 ovarian, with RXF 393 renal, in the experiment with MDA-MB-435 and in the experiment with NCI-H23 lung was greater than 100 µM each time. In addition, the TGI in the experiment on EKVX NSCLC, with HCC-2998 colon, in the experiment on OVCAR-3 ovarian, in the experiment on LOX IMVI melanoma, with SK-MEL-5 melanoma and in the experiment with M14 melanoma was greater than 100 µM throughout.
